Assay results published in US20090186918A1, “Triazole Compounds as Lipoxygenase Inhibitors” (priority 2005, published 2009).
Where two headings read alike, the source gives them in different places.

Molecular target: T1, purified human 15-lipoxygenase (Homo sapiens, UniProt P16050)
T1 sequence (P16050 1-662): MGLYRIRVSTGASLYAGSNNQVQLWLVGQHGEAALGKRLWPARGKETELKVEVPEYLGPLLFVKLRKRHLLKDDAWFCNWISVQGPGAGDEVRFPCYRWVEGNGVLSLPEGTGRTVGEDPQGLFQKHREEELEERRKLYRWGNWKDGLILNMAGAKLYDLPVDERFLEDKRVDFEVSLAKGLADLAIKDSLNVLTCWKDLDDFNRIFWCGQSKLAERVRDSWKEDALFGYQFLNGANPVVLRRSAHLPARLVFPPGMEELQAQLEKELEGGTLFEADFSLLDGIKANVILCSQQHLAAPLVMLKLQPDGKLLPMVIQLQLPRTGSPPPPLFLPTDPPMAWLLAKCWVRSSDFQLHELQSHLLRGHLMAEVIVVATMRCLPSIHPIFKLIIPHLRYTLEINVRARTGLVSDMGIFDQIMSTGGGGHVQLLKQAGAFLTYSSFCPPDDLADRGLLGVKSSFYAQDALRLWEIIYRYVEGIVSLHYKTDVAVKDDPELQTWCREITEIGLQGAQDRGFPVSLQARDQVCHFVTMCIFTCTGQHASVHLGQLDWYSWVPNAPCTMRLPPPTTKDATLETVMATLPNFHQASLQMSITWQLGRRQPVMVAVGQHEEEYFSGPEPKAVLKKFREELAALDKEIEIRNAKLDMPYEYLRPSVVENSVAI
Assay: 15-lipoxygenase inhibition assay (arachidonic acid oxidation, 15-HPETE/15-HETE measured by reverse phase HPLC)
Assay type: biochemical
Experimental: The assay employed takes advantage of the ability of lipoxygenases to oxidize polyunsaturated fatty acids, containing a 1,4-cis-pentadiene configuration, to their corresponding hydroperoxy or hydroxyl derivatives. In this particular assay, the lipoxygenase was a purified human 15-lipoxygenase and the fatty acid was arachidonic acid. The assay is performed at room temperature (20-22° C.) and the following are added to each well in a 96-well microtiter plate:
a) 35 μL phosphate buffered saline (PBS) (pH 7.4); b) inhibitor (i.e. compound) or vehicle (0.5 μl DMSO); c) 10 μL of a 10× concentrated solution of 15-lipoxygenase in PBS. The plates are incubated for 5 minutes at room temperature;
d) 5 μl of 0.125 mM arachidonic acid in PBS. The plate is then incubated for 10 minutes at room temperature;
e) the enzymatic reaction is terminated by the addition of 100 μl methanol; and f) the amount of 15-hydroperoxy-eicosatetraenoic acid or 15-hydroxy-eicosatetraenoic acid is measured by reverse phase HPLC.

[1] = purified human 15-lipoxygenase, arachidonic acid substrate, room temperature, read-out: IC50

Structure (SMILES) | IC50 | IC50 [1]
O=C(Nc1cnc2ccccc2c1)c1cn[nH]n1 [Example 1, 1,2,3-Triazole-4-carboxylic acid quinolin-3-ylamide] | 1.4 µM | 
O=C(Nc1ccc(Cl)c(Cl)c1Cl)c1c[nH]nn1 [Example 6, 1,2,3-Triazole-4-carboxylic acid (2,3,4-trichlorophenyl)amide] |  | 0.33 µM
O=C(Nc1ccc(Cl)cn1)c1c[nH]nn1 [Example 7, 1,2,3-Triazole-4-carboxylic acid (5-chloropyridin-2-yl)amide] |  | 1.8 µM
O=C(Nc1ccc(Cl)c(Cl)c1)c1c[nH]nn1 [Example 9, 1,2,3-Triazole-4-carboxylic acid (3,4-dichlorophenyl)amide] |  | 1.6 µM
O=C(Nc1cc(Cl)c(Cl)cc1Cl)c1c[nH]nn1 [Example 12, 1,2,3-Triazole-4-carboxylic acid (2,4,5-trichlorophenyl)amide] |  | 0.76 µM
Cc1cc(NC(=O)c2c[nH]nn2)ccc1Cl [Example 18, 1,2,3-Triazole-4-carboxylic acid (4-chloro-3-methylphenyl)amide] |  | 0.95 µM
O=C(Nc1ccc(Br)cn1)c1c[nH]nn1 [Example 35, 1,2,3-Triazole-4-carboxylic acid (5-bromopyridin-2-yl)amide] |  | 0.81 µM
O=C(Nc1ccc(C(F)(F)F)cc1C(F)(F)F)c1c[nH]nn1 [Example 36, 1,2,3-Triazole-4-carboxylic acid [2,4-bis(trifluoromethyl)phenyl]amide] |  | 1.16 µM
O=C(Nc1ccc(C(F)(F)F)cc1[N+](=O)[O-])c1c[nH]nn1 [Example 73, 1,2,3-Triazole-4-carboxylic acid 2-nitro-4-(trifluoromethyl)phenylamide] |  | 3.8 µM
O=C(Nc1ccc(Cl)cc1C(F)(F)F)c1c[nH]nn1 [Example 75, 1,2,3-Triazole-4-carboxylic acid 4-chloro-2-(trifluoromethyl)phenylamide] |  | 0.25 µM
O=C(Nc1ccc(Cl)cc1F)c1c[nH]nn1 [Example 76, 1,2,3-Triazole-4-carboxylic acid 4-chloro-2-fluorophenylamide] |  | 0.53 µM
O=C(Nc1cc(Cl)cc(Cl)c1)c1c[nH]nn1 [Example 82, 1,2,3-Triazole-4-carboxylic acid (3,5-dichlorophenyl)amide] |  | 4.1 µM
Cc1ccc(NC(=O)c2c[nH]nn2)cc1F [Example 91, 1,2,3-Triazole-4-carboxylic acid (3-fluoro-4-methylphenyl)amide] |  | 9.4 µM
